According to patent US20060234911A1, “Method of reversing epithelial mesenchymal transition” (priority 2005, published 2006):

Tests used:
[1] = cited from earlier work
[2] = tested on: E-cadherin; assay: E-cadherin immunofluorescence at cell junctions after EMT; assay type: cell-based, mouse; conditions: 100 pM TGF-β1 72 h, then inhibitors for an additional 36 hours; 5 μM SB431542, 5 μM SB203580, 5 μM Y27632, 15 μM SP600125
Description: FIG. 6: E-cadherin is restored by combining TβRI kinase inhibitor with either the ROCK inhibitor or the p38 MAPK inhibitor. E-cadherin is found between mTEC-KO cells (A). mTEC-KO cells were treated with 100 pM TGF-β1 for 72 hours to induce mesenchymal state in which E-cadherin is lost (B). Single inhibitors or combinations of two inhibitors were added for an additional 36 hours. […] E-cadherin reformed between cells that used combination kinase inhibitors which included 5 μM SB431542 with 5 μM SB203580 (G), 5 μM Y27632 (H), but not 15 μM SP600125 (I). Cell lysates from mTEC-KOs were analyzed by western blot using antibodies to E-cadherin and β-tubulin (J). Control epithelial cells were grown without TGF-β (Lane 3). The cells were then treated for an additional 48 hours with no inhibitor (Lane 2), single inhibitors (5 μM Y27632, Lane 6; 5 μM SB203580, Lane 7; 5 μM SB431542, Lane 8) or with the combination of 5 μM SB431542 with either 15 μM SP600125 (Lane 1), 5 μM Y27632 (Lane 4) or 5 μM SB203580 (Lane 5).
(§1) Cells were seeded on glass cover slips (Fisher) and cultured as described above. Cells were treated, fixed in 4% paraformaldehyde, and permeabilized in PBS containing 0.1% Triton X-100 for 10 min. Nonspecific sites were blocked with 10% BSA or normal goat serum for 30 min. F-actin was stained at a 1:1000 dilution in 2% BSA of Texas Red-conjugated phalloidin (Sigma) and incubated for 30 min. E-cadherin (BD Biosciences) was diluted at 1:200 in 2% normal goat serum and a secondary antibody (Molecular Probes) at a 1:500 dilution was used for detection. All washes were done in 1× PBS.
An important criterion for epithelium restoration is re-expression of the cell-cell junction adhesion protein E-cadherin. mTEC-KO cells were treated with 100pm TGF-β1 for 72 hours to induce EMT and then kinase inhibitors were added for an additional 24-48 hours (FIG. 6).

[3] = tested on: mTEC-KO cells; assay: Reversal of mesenchymal actin cytoskeleton, F-actin phalloidin staining; assay type: cell-based, mouse; conditions: 100 pM TGF-β1 72 h, then inhibitor 24 h; 5 μM SB431542, 1 μM SB203580, 1 μM Y27632, 10 μM U0126, 15 μM SP600125
Description: Renal tubular epithelial cells (mTEC-KOs) were treated with 100 pm TGF-β1 for 72 hours and then kinase inhibitors were added for an additional 24 hours. The F-actin in the cells was visualized by staining with phalloidin. mTEC-KO cells were treated with a single kinase inhibitor (A-E) or with SB431542 plus a second kinase inhibitor (F-I). Single kinase inhibitors and concentrations were: 5 μM SB431542 (A), 1 μM SB203580 (B), 1 μM Y27632 (C), 10 μM U0126 (D), or 15 μM SP600125 (E). Combination kinase inhibitors included 5 μM SB431542 with 1 μM SB203580 (F), 1 μM Y27632 (G), 10 μM U0126 (H) or 15 μM SP600125 (I). […] White arrows point to stress fibers.
as §1
To examine the reversibility of the EMT induced by TGF-β1 in mTEC-KO cells, we added inhibitors of kinases previously implicated in EMT. Cells were treated with 100 pM TGF-β1 for 72 hours to induce EMT and kinase inhibitors were added for an additional 24 hours. […] To assess the effects of the kinase inhibitors on EMT, the actin cytoskeleton was examined by phalloidin staining.
Since EMT effects are mediated by multiple cellular pathways and none of the single kinase inhibitors reverted the EMT phenotype, we applied combinations of two inhibitors. […] Cortical actin bordering the cell-cell junctions was restored by both combinations. The addition of either the MEK1 inhibitor or the JNK inhibitor to the […] inhibitor had no detectable effect on the mesenchymal phenotype of the cells (FIGS. 4H and I).

[4] = tested on: SM22; assay: SM22 mRNA by quantitative RT-PCR after EMT; assay type: cell-based, mouse; conditions: 100 pM TGF-β1 72 h, then inhibitor(s) for an additional 24 hours
Description: (§2) FIG. 5: Restoration of epithelial gene expression patterns by kinase inhibitors illustrates a requirement for two kinase inhibitors to restore cadherin expression. mTEC-KO cells were treated with 100 pm TGF-β1 for 72 hours to induce EMT. Single kinase inhibitors or inhibitor combinations were added, cells were grown for an additional 24 hours and harvested for preparation of RNA. Ksp-cadherin (A), SM22 (B), and MMP-9 (C) mRNA levels were measured by quanitative RT-PCR. Significant differences between the untreated (No TGF-β1) cells versus cells treated with TGF-β1 or with TGF-β1 followed by inhibitor are indicated with an asterisk (*) (P<0.05, n=9). Significant differences between single inhibitors versus combination inhibitors are indicated by a letter (a,b,c) over the bar showing the combination. Each letter refers to the single inhibitor in the graph (indicated by the letter below the name of the inhibitor).
(§3) In a six well plate, 50,000 cells were seeded and appropriately treated. Total RNA was isolated using RNAeasy Miniprep kit (Qiagen) and quantified by UV spectrophotometer. 1.5 μg of RNA was converted by reverse transcriptase into cDNA using the OmniScript kit (Qiagen). Primers used for Q-PCR were: KSP-Cadherin forward-5′ CTG CAC ACA GM GTC CCT GA 3′, reverse 5′ CCTTGTCGCCACTAGAAAGC 3′; MMP-9-SuperArray (Frederick, Md.) PPM03661A; SM22 forward 5′GCA GTC CM MT TGA GM GA 3′, reverse 5′ CTGTTGCTGCCCATTTGAAG 3′; PAI-1 forward 5′TTCAGCCCTTGCTTGCCTC 3′, reverse 5′[…] 3′. cDNA was amplified in an Opticon 2 PCR machine (MJ Research) and labeled by the DyNAmo SYBR Green qPCR Kit. The amplification was carried out in the following manner: initial denaturation for 10 min at 95° C., denaturation for 10 sec at 95° C., annealing for 30 sec at the appropriate temperature, and extension for 30 sec at 72° C. Standards were created from Pfu (Stratagene) amplified PCR products purified by gel purification. Glyceraldehyde-3-phosphate dehydrogenase (GAPDH) was used as an internal control to normalize gene expression. […]

[5] = tested on: Ksp-cadherin; assay: Ksp-cadherin mRNA by quantitative RT-PCR after EMT; assay type: cell-based, mouse; conditions: 100 pM TGF-β1 72 h, then inhibitor(s) for an additional 24 hours
Description: In a six well plate, 50,000 cells were seeded and appropriately treated. Total RNA was isolated using RNAeasy Miniprep kit (Qiagen) and quantified by UV spectrophotometer. 1.5 μg of RNA was converted by reverse transcriptase into cDNA using the OmniScript kit (Qiagen). […] 3′. cDNA was amplified in an Opticon 2 PCR machine (MJ Research) and labeled by the DyNAmo SYBR Green qPCR Kit. The amplification was carried out in the following manner: initial denaturation for 10 min at 95° C., denaturation for 10 sec at 95° C., annealing for 30 sec at the appropriate temperature, and extension for 30 sec at 72° C. Standards were created from Pfu (Stratagene) amplified PCR products purified by gel purification. Glyceraldehyde-3-phosphate dehydrogenase (GAPDH) was used as an internal control to normalize gene expression.
The effects of individual or combinations of kinase inhibitors on the expression of several genes altered by EMT were measured by quantitative RT-PCR.

[6] = tested on: MMP-9; assay: MMP-9 mRNA by quantitative RT-PCR after EMT; assay type: cell-based, mouse; conditions: 100 pM TGF-β1 72 h, then inhibitor(s) for an additional 24 hours
Description: as §2, §3

[7] = tested on: mTEC-KO cells; assay: Blocking of TGF-β1-induced EMT (cell morphology, phalloidin staining); assay type: cell-based, mouse; conditions: 10 μM SB431542 together with TGF-β1 for 72 hours
Description: FIG. 1: TGF-β1 induces EMT in renal tubular epithelial cells. mTEC-KOs were incubated for 72 hours without TGF-β1 (A,D), with 100 pM TGF-β1 (B, E) or with TGF-β1 and 10 μM SB431542. Cell morphology was observed by brightfield phase microscopy at 100× magnification (A-C). […] White arrows point to stress fibers.
TGF-β knockout Murine Renal Epithelial Tubular Cells (mTEC-KO) were maintained in Renal Epithelial Cell Growth Medium (Cambrex, Md.) containing 0.25% Fetal Bovine serum (FBS), supplemented with a Bullet Kit that contained: epidermal growth factor, insulin, hydrocortisone, GA-1000, epinephrine, T3, transferrin (Cambrex), as well as penicillin and streptomycin (Gibco) in a 37° humidified 5% CO2 incubator.
as §1, with “PBS. […]” for “PBS.”

[8] = tested on: PAI-1; assay: PAI-1 mRNA expression by quantitative RT-PCR in TGFβ-induced mesenchymal cells; assay type: cell-based, mouse; conditions: 100 pM TGF-β1 72 hours, then 5 uM inhibitor for 24 hours
Description: TGFβ1 ligand (100 pM) was added to mTEC-KOs for 72 hours, followed by the addition of 5 μM SB431542 plus 100 pM TGFβ1 for an additional time 24 hours. Cell lysates were used to prepare RNA which was examined by quantitative RT-PCR for PAI-1. Significant differences in PAI-1 expression level between cells treated with TGF-β1 alone versus cells treated with TGF-β1 and then with inhibitor for the indicated times are indicated with an asterisk (*) (P<0.05, n=9).
as §3, with “C.” for “C. Standards were created from Pfu (Stratagene) amplified PCR products purified by gel purification. Glyceraldehyde-3-phosphate dehydrogenase (GAPDH) was used as an internal control to normalize gene expression.”

[9] = tested on: mouse distal tubular epithelial cells; conditions: 100 ng/ml BMP7 for 48 hours; cited from earlier work
[10] = 300 ug/kg human BMP7 every other day beginning at week three; cited from earlier work

Molecule | E-cadherin at cell junctions (localization) [2] | reversal of mesenchymal actin stress fiber morphology, single kinase inhibitor [3] | SM22 mRNA level [4] | Ksp-cadherin mRNA level [5] | MMP-9 mRNA level [6] | also measured
HGF: hepatocyte growth factor |  |  |  |  |  | reversal of EMT in vivo [1]: only provided a partial reversal of EMT
C[S+]([O-])c1ccc(-c2nc(-c3ccncc3)c(-c3ccc(F)cc3)[nH]2)cc1 (stereo not shown) [SB203580] | caused an increase in reforming E-cadherin at cell junctions | fail to reverse the mesenchymal actin cytoskeleton | did not reduce SM22 or MMP9 transcript levels | led to a further decrease in Ksp-cadherin expression | did not reduce SM22 or MMP9 transcript levels | 
NC(=O)c1ccc(-c2nc(-c3ccc4c(c3)OCO4)c(-c3ccccn3)[nH]2)cc1 [SB431542] | caused an increase in reforming E-cadherin at cell junctions | did not reverse the mesenchymal actin stress fiber morphology | efficiently reduced SM22 and MMP-9 expression to pre-EMT levels | increased Ksp-cadherin to intermediate levels | efficiently reduced SM22 and MMP-9 expression to pre-EMT levels | TGF-β1-induced transition of epithelial cells into mesenchymal cells [7]: blocked the TGF-β1-induced transition of the mTEC-KO epithelial cells into mesenchymal cells; actin stress fibers (phalloidin) when inhibitor is given with TGF-β1 [7]: very few actin stress fibers were observed; PAI-1 mRNA level [8]: sufficient to reduce the mRNA level
N#CC(=C(/N)Sc1ccccc1N)/C(C#N)=C(\N)Sc1ccccc1N [U0126] |  | fail to reverse the mesenchymal actin cytoskeleton |  |  |  | 
C[C@@H](N)[C@H]1CC[C@H](C(=O)Nc2ccncc2)CC1 [Y27632] | caused an increase in reforming E-cadherin at cell junctions | fail to reverse the mesenchymal actin cytoskeleton | partially reduced SM22 levels | increased Ksp-cadherin to intermediate levels | increased the level of MMP9 expression | 
BMP7: TGFβ superfamily member that acts through distinct receptors and Smad proteins (protein, UniProt P18075 293-431, looked up) Bone morphogenetic protein 7: STGSKQRSQNRSKTPKNQEALRMANVAENSSSDQRQACKKHELYVSFRDLGWQDWIIAPEGYAAYYCEGECAFPLNSYMNATNHAIVQTLVHFINPETVPKPCCAPTQLNAISVLYFDDSSNVILKKYRNMVVRACGCH |  |  |  |  |  | reversal of TGF-β1 induced EMT (E-cadherin expression, epithelial morphology) [9]: reversed; renal pathology (mortality, renal function) [10]: reversed the renal pathology as indicated by a decline in mortality, and improvement in renal function
